Drawing on paper doi:10.1101/2022.02.21.481260v1 (biorxiv, 2022), this text covers IC50 for one compound.

The assay has as its target T1, hFAP (recombinant human Fibroblast Activation Protein) (Homo sapiens, UniProt Q12884).
T1 sequence (Q12884 26-760 limits assumed): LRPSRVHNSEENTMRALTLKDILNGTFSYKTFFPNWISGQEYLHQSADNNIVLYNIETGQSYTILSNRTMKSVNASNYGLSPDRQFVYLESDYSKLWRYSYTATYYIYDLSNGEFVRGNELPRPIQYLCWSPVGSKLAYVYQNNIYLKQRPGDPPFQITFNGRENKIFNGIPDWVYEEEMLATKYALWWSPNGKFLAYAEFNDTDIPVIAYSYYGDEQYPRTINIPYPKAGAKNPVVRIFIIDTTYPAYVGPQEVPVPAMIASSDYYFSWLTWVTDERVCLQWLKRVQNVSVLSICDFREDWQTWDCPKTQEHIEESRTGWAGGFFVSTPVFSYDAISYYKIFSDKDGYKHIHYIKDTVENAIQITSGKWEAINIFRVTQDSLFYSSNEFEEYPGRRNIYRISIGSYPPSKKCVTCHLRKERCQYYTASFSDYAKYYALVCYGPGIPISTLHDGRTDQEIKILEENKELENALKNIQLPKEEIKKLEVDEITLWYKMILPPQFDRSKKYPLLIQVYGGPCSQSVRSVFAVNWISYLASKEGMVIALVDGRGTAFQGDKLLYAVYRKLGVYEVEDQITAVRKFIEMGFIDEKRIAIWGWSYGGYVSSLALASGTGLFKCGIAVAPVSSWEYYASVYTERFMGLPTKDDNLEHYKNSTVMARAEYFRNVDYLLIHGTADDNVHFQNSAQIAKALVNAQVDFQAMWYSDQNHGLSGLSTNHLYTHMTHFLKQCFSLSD
As to the kind of experiment: biochemical.

The structures appear in SMILES notation.

In general, IC50 refers to the concentration at which inhibition is half-maximal.

`N#C[C@@H]1CC(F)(F)CN1C(=O)CNC(=O)c1ccnc2c(NC(=O)CCC(=O)NCCNC(=O)CCC(C(=O)O)N3CCN(CC(=O)O)CCN(CC(=O)O)CCN(CC(=O)O)CC3)cccc12` (stereo partly shown) [compound 1, OncoFAP-DOTAGA]: the IC50 came out at 0.399 nM.
